Experiments:
jun-B = assay: Northern blot of jun-B expression in Jurkat cells; type: cell-based, human; conditions: 40 minutes; for effect on jun-B induction by TPA: A23187 1 μg/ml or CsA 100 ng/ml
Procedure: Exponentially growing Jurkat cells (10^6/ml) grown in complete RPMI medium was pretreated with CsA for 15 minutes when applicable, then subjected to various treatments for another 40 minutes. Total cytoplasmic RNA was extracted as previously described (Angel, et al., Cell, 49:729-739, 1987). 10 μg RNA was denatured by incubating with glyoxal for 60 minutes at 55° C. and fractionated on a 1% agarose gel in phosphate buffer. The fractionated RNA was blotted to Zetabind Nylon membrane (CUNO Labs) and hybridized to ^32P-labelled cDNA probes specific for c-jun, jun-B, jun-D, c-fos, α-tubulin and IL-2.
During the first stage of T lymphocyte activation, early response genes are rapidly included (Crabtree, Science, 243:355,361, 1989; Zipfel, et al., Mol Cell Bio., 9:1041-1048, 1989). Induction of jun and fos genes during activation of the Jurkat T cell line was investigated. Two different co-stimulatory paradigms were used, one employing TPA and the Ca^2+ ionophore A23187, and the second based on simultaneous stimulation of the TCR complex with an antibody to its CD3 component (OKT3; Van Wauwe, et al., J. Immunol., 124:2708-2713, 1980) and stimulation of the CD28 auxiliary receptor with an anti-CD28 antibody (9.3; Hansen, et al., Immunogenetics, 10:247-260, 1993; June, et al., Immunol. Today, 11:211-216, 1990). Total cytoplasmic RNA was extracted from Jurkat cells that were incubated with 50 ng/ml TPA (T), 1 μg/ml A23187 (A) or 100 ng/ml cyclosporin A (CsA) for 40 minutes, either alone or in combinations, as indicated. After fractionation of 10 μg samples on an agarose gel and transfer to nylon membrane, the level of c-jun, jun-B, jun-D, c-fos and α-tubulin expression was determined by hybridization to random primed cDNA probes.

[1] = tested on: AP-1 responsive human collagenase promoter (-73Col-LUC); assay: AP-1 transcriptional activity, -73Col-LUC luciferase reporter in Jurkat cells; type: cell-based; conditions: for -73Col-LUC luciferase activity, agent administered alone: TPA 50 ng/ml or A23187 1 μg/ml, 9 hours; for -73Col-LUC luciferase activity, two costimuli together: TPA+A23187 or anti-CD3+anti-CD28
Procedure: T Ag Jurkat cells, a derivative of the human Jurkat T-cell line stably transfected with the SV40 large T antigen (a gift from Dr. G. Crabtree) were grown to 10^6/ml, then resuspended at 2×10^7/ml in fresh complete medium. 10^7 cells (0.5 ml) were mixed with reporter plasmids (5 μg, −79 jun-LUC; 10 μg, −73/+63 Col-LUC or −60/+63 Col-LUC; 5 μg IL2-LUC) at room temperature for 10 minutes, then electroporated at 250 V, 960 uF in a 0.4 cm cuvette using a Bio-Rad GenePulser. After electroporation, cells were immediately put on ice for 10 minutes, then resuspended in 10 ml complete medium for 24 hours before stimulation. 0.5 μg of pSRaIIc-Jun were used to transfect 10^7 Jurkat cells. Luciferase activity was determined as described (Deng and Karin, supra., 1993).
The effects of the different stimuli on AP-1 transcriptional activity in Jurkat cells were examined using a truncated, AP-1 responsive, human collagenase promoter (Angel, et al., Cell, 49:729-739, 1987) fused to the luciferase (LUC) reporter gene. Jurkat cells were transfected with 10 μg of either −73Col-LUC or −60Col-LUC reporter plasmids. 24 hours after transfection, the cells were aliquoted into 24 well plates and incubated for 9 hours with 50 ng/ml TPA, 1 μg/ml A23187 or 100 ng/ml CsA, either alone or in combinations, as indicated. The cells were harvested and luciferase activity was determined. The results shown are averages of three experiments done in triplicates.

MEK = MEK assay with kinase-defective ERK1 substrate, Jurkat cells and mouse thymocytes; type: cell-based, human; mouse
Procedure: JNK is a proline-directed protein kinase activated by extracellular stimuli (Hibi, et al., supra, 1993). In that respect, it resembles the ERK1 and 2 MAP kinases (Boulton, et al., Cell, 65:663-675, 1991). Since ERK1 and 2 appear to be involved in induction of c-fos (Gille, et al., Nature, 358:414-417, 1992; Marais, et al., Cell, 73:381-393, 1993) and could thereby participate in T cell activation, their regulation was examined. ERK1 and ERK2 activities were measured in both Jurkat and mouse thymocytes using an immunecomplex kinase assay and myelin basic protein (MBP) as a substrate. Recombinant, kinase-defective ERK1 was also used a substrate for assaying MEK, the protein kinase responsible for activation of ERK1 and 2 (Crews, et al., Science, 258:478-480, 1992).
WCE (5 μg) of Jurkat (FIG. 15, panel A) or mouse thymocytes (panel C) were incubated with 1 μg of kinase-defective ERK1 in kinase buffer containing γ-^32P-ATP for 20 minutes. The phosphorylated proteins were separated by SDS-PAGE and the band corresponding to the mutant ERK1 is indicated. WCE (20 μg) of Jurkat (panel B) or mouse thymocytes (panel C) that were treated as described above were immunoprecipitated with anti-ERK antibodies (a gift from Dr. M. Weber). The immune complexes were washed and incubated in kinase buffer containing γ-^32P-ATP and 2 μg MBP for 15 minutes at 30° C. The phosphorylated proteins were separated by SDS-PAGE. The band corresponding to phosphorylated MBP is indicated.

| Compound | effect on jun-B induction by TPA (jun-B) | effect on induction of -73Col-LUC ([1]; CsA 100 ng/ml with TPA+A23187, 9 hours) | MEK activity, effect of A23187 or CsA (MEK) | -73Col-LUC luciferase activity, agent administered alone [1] | -73Col-LUC luciferase activity, two costimuli together [1] | jun-B expression, agent alone (jun-B; TPA 50 ng/ml) | MEK activity, TPA treatment (MEK; Jurkat cells or mouse thymocytes) |
| --- | --- | --- | --- | --- | --- | --- | --- |
| cyclosporin A [CsA] | not affected | inhibited | had no effect on either activity |  |  |  |  |
| CNc1ccc2oc(C[C@H]3O[C@@]4(CC[C@H]3C)O[C@H]([C@H](C)C(=O)c3ccc[nH]3)[C@H](C)C[C@H]4C)nc2c1C(=O)O [A23187] | not affected |  | had no effect on either activity | marginal effects | synergistic activation |  |  |
| anti-CD3: anti-CD3 monoclonal antibody OKT3 |  |  |  |  | synergistic activation |  |  |
| CCCCCCCCCCCCCC(=O)O[C@@H]1[C@@H](C)[C@@]2(O)[C@@H](C=C(CO)C[C@]3(O)C(=O)C(C)=C[C@@H]23)[C@H]2C(C)(C)[C@]12OC(C)=O [TPA] |  |  |  | marginal effects | synergistic activation | induced | fully stimulated |
